US20150105252A1, “SUBSTITUTED PYRAZOLES AS HERBICIDES” (E I DU PONT DE NEMOURS AND COMPANY, priority 2013, published 2015)

Columns and labels:
barnyardgrass [1] = assay: Test A postemergence; assay type: in vivo, Echinochloa crus-galli
How it was run: (§1)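 Seeds were sown in a loam soil–sand blend and given a directed soil spray preemergence; postemergence plants at 2–10 cm, one- to two-leaf stage, were sprayed with compound in non-phytotoxic solvent with surfactant. After about 10 days in a greenhouse, injury was visually rated against untreated controls (0 = no effect, 100 = complete control).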

rice = assay: Test B flood; assay type: in vivo, Oryza sativa; conditions: 250 g ai/ha, visual rating on 0 to 100 scale (0 no effect, 100 complete control), 13 to 15 days
How it was run: (§2)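 Two-leaf-stage plants, pots flooded (3 cm above soil) and treated through the water, which stayed at that depth. After 13–15 days in greenhouse conditions, visual assessment versus controls: 0 is no effect, 100 complete control, dash means no result.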

morningglory [2] = assay: Test C preemergence; assay type: in vivo, Ipomoea coccinea; conditions: for Morningglory plant response rating: scale 0 to 100 (0 no effect, 100 complete control)
How it was run: (§3)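 In this greenhouse assay, seeded soil (loam plus sand) or emerged seedlings in peat-vermiculite medium were treated with formulated compound. Roughly two weeks later (13–15 days), each species was scored visually relative to controls, from 0 for no effect to 100 for complete control.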

barnyardgrass [3] = assay: Test C preemergence; assay type: in vivo, Echinochloa crus-galli; conditions: for Barnyardgrass plant response rating: scale 0 to 100 (0 no effect, 100 complete control)
How it was run: as §3

barnyardgrass [4] = assay: Test B flood; assay type: in vivo, Echinochloa crus-galli; conditions: 250 g ai/ha, visual rating on 0 to 100 scale (0 no effect, 100 complete control), 13 to 15 days
How it was run: as §2

morningglory [5] = assay: Test A postemergence; assay type: in vivo, Ipomoea spp.
How it was run: as §1

foxtail, giant [6] = assay: Test A postemergence; assay type: in vivo, Setaria faberii
How it was run: as §1

corn = assay: Test A preemergence; assay type: in vivo, Zea mays; conditions: preemergence
How it was run: as §1

pigweed = assay: Test C preemergence; assay type: in vivo, Amaranthus retroflexus; conditions: for Pigweed plant response rating: scale 0 to 100 (0 no effect, 100 complete control)
How it was run: as §3

crabgrass, large [7] = assay: Test C postemergence; assay type: in vivo, Digitaria sanguinalis
How it was run: as §3

galium = assay: Test C postemergence; assay type: in vivo, Galium aparine
How it was run: as §3

nutsedge, yellow = assay: Test C postemergence; assay type: in vivo, Cyperus esculentus
How it was run: as §3

crabgrass, large [8] = assay: Test A postemergence; assay type: in vivo, Digitaria sanguinalis
How it was run: as §1

foxtail, giant [9] = assay: Test A preemergence; assay type: in vivo, Setaria faberii; conditions: preemergence
How it was run: as §1

[10] = Postemergence, 500 g ai/ha, 0 to 100 scale (0 no effect, 100 complete control)
[11] = postemergence, 125 g ai/ha, about 10 days, visual rating on 0 to 100 scale (0 no effect, 100 complete control)
[12] = preemergence, 31 g ai/ha, visual rating, 13 to 15 days
[13] = preemergence, 62 g ai/ha, 13 to 15 days
[14] = preemergence, 125 g ai/ha, 13 to 15 days, scale 0 to 100, 0 = no effect, 100 = complete control
[15] = 125 g ai/ha, visual injury, 0 to 100 scale, approx. 10 days
[16] = 500 g ai/ha, visual injury after approx. 10 days, 0 to 100 scale (0 no effect, 100 complete control)
[17] = Postemergence, 31 g ai/ha, visually evaluated after 13 to 15 days
[18] = postemergence, 62 g ai/ha, scale 0 to 100
[19] = postemergence, 250 g ai/ha, scale 0 to 100 (0 no effect, 100 complete control)
[20] = postemergence, 125 g ai/ha, scale 0 to 100, 0 no effect, 100 complete control

Structure (SMILES): CCONC(=O)c1cc(CC)n(Cc2ccnc(OC(F)F)c2)n1 [Compound 131]
- Barnyardgrass plant response rating (barnyardgrass [1]; [10]): 90
- Barnyardgrass plant response rating (barnyardgrass [1]; [11]): 80
- Plant response rating, Rice (rice): 40
- Plant response rating (scale of 0 to 100), Morningglory (morningglory [2]; Preemergence, 250 g ai/ha): 100
- Morningglory plant response rating (morningglory [2]; [12]): 40
- Morningglory plant response rating (morningglory [2]; [13]): 100
- Plant response rating, Morningglory (morningglory [2]; [14]): 100
- Plant response rating (scale of 0 to 100), Barnyardgrass (barnyardgrass [3]; Preemergence, 250 g ai/ha): 100
- Barnyardgrass plant response rating (barnyardgrass [3]; preemergence, 31 g ai/ha, 13 to 15 days): 55
- Barnyardgrass plant response rating (barnyardgrass [3]; [13]): 95
- Plant response rating, Barnyardgrass (barnyardgrass [3]; [14]): 100
- Plant response rating, Barnyardgrass (barnyardgrass [4]): 50
- Morningglory plant response rating (morningglory [5]; [10]): 100
- Morningglory plant response rating (morningglory [5]; [11]): 90
- Foxtail, Giant plant response rating (foxtail, giant [6]; [10]): 90
- Foxtail, Giant plant response rating (foxtail, giant [6]; [11]): 80
- Corn plant response rating (corn; [15]): 60
- Corn plant response rating (corn; [16]): 90
- Plant response rating (scale of 0 to 100), Pigweed (pigweed; Preemergence, 250 g ai/ha): 100
- Pigweed plant response rating (pigweed; [12]): 100
- Pigweed plant response rating (pigweed; [13]): 100
- Plant response rating, Pigweed (pigweed; [14]): 100
- Plant response rating (scale of 0 to 100 where 0 is no effect and 100 is complete control), Crabgrass, Large (crabgrass, large [7]; [17]): 5
- Crabgrass, Large plant response rating (crabgrass, large [7]; [18]): 5
- Plant response rating, Crabgrass, Large (crabgrass, large [7]; [19]): 40
- Plant response rating, Crabgrass, Large (crabgrass, large [7]; [20]): 15
- Plant response rating (scale of 0 to 100 where 0 is no effect and 100 is complete control), Galium (galium; [17]): 45
- Galium plant response rating (galium; [18]): 55
- Plant response rating, Galium (galium; [19]): 70
- Plant response rating, Galium (galium; [20]): 50
- Plant response rating (scale of 0 to 100 where 0 is no effect and 100 is complete control), Nutsedge, Yellow (nutsedge, yellow; [17]): 5
- Nutsedge, Yellow plant response rating (nutsedge, yellow; [18]): 5
- Plant response rating, Nutsedge, Yellow (nutsedge, yellow; [19]): 20
- Plant response rating, Nutsedge, Yellow (nutsedge, yellow; [20]): 10
- Crabgrass, Large plant response rating (crabgrass, large [8]; [10]): 90
- Crabgrass, Large plant response rating (crabgrass, large [8]; [11]): 70
- Foxtail, Giant plant response rating (foxtail, giant [9]; [15]): 90
- Foxtail, Giant plant response rating (foxtail, giant [9]; [16]): 100
